Data from ChEMBL document CHEMBL5634137, “2,4-Diacetylphloroglucinol (DAPG) derivatives rapidly eradicate methicillin-resistant staphylococcus aureus without resistance development by disrupting membrane” (Eur J Med Chem, 2023).
In brackets after ≈: the same amount, converted by molar mass. Activity calls are given as the source filed them. The calls are words filed in the database; no cut-off is given here.

Experiments:
Staphylococcus aureus [1] = test: Antibiofilm activity against Methicillin-resistant Staphylococcus aureus USA300 assessed as biofilm eradication at 32 times MIC by crystal violet staining based assay; type: functional
Staphylococcus aureus [2] = test: Inhibition of staphyloxanthin biosynthesis in Methicillin-resistant Staphylococcus aureus ATCC 3392 assessed as reduction in 4,4-diaponeurosporenic acid formation at 0.125 to 0.625 times MIC by nanodrop spectrophotometer analysis; type: functional, organism-based
Cell membrane [3] = test: Induction of cell membrane damage in Staphylococcus aureus USA300 assessed as nucleic acid leakage at 4 to 8 times MIC measured for 3 hrs by confocal laser scanning microscopic analysis; type: cell membranes
Cell membrane [4] = test: Induction of cell membrane damage in Staphylococcus aureus USA300 assessed as intracellular ATP leakage at 16 times MIC by confocal laser scanning microscopic analysis; type: cell membranes
[5] = Cytotoxicity against mouse RAW264.7 cells assessed as survival rate incubated for 24 hrs by MTT assay; type: toxicity, cell-based; design: concentration or dose not given beside the values; settings: read-out: Survival
Staphylococcus aureus [6] = test: Additive antibacterial activity against Methicillin-resistant Staphylococcus aureus USA300 assessed as fractional inhibitory concentration index in presence of doxycycline by checkboard method; type: functional
Cell membrane [7] = test: Induction of inner membrane permeabilization in Staphylococcus aureus USA300 assessed as increase in fluorescence intensity at 2 times MIC incubated for 40 mins by SYTOX staining based analysis; type: cell membranes
Staphylococcus aureus [8] = test: Antibacterial activity against methicillin-resistant Staphylococcus aureus ATCC 3392 assessed as inhibition of bacterial growth incubated for 24 hrs by broth dilution method; type: functional
Staphylococcus aureus [9] = test: Bactericidal activity against methicillin-resistant Staphylococcus aureus ATCC 3392 assessed as inhibition of bacterial growth incubated for 24 hrs by broth dilution method; type: functional
Cell membrane [10] = test: Induction of cell membrane damage in Staphylococcus aureus USA300 assessed as nucleic acid leakage at 1 to 2 times MIC by confocal laser scanning microscopic analysis; type: cell membranes
Staphylococcus aureus [11] = test: Antibacterial activity against Methicillin-resistant Staphylococcus aureus USA300 assessed as decrease in number of colonies incubated for 0.5 hrs by time-kill kinetics assay; type: functional, organism-based
Cell membrane [12] = test: Induction of cell membrane damage in Staphylococcus aureus USA300 assessed as intracellular ATP leakage at 1 to 8 times MIC by confocal laser scanning microscopic analysis; type: cell membranes
Staphylococcus aureus [13] = test: Induction of resistance development in methicillin resistant Staphylococcus aureus USA300 at 25 to 150 microg/ml measured upto 65 days; type: functional; settings: dose 25-150 µg/ml, time <= 65.0 day
Staphylococcus aureus [14] = test: Synergistic antibacterial activity against Methicillin-resistant Staphylococcus aureus USA300 assessed as amoxicillin MIC incubated for 24 hrs by checkboard method (reference value: 8 microg/ml); type: functional
Staphylococcus aureus [15] = test: Synergistic antibacterial activity against Methicillin-resistant Staphylococcus aureus USA300 infected in mouse skin infection model assessed as reduction in number of bacteria at 10 mg/kg, sc in presence of oxacillin administered every 12 hrs for 3 days; type: functional; settings: time 3 day
Staphylococcus aureus [16] = test: Induction of morphological changes in Staphylococcus aureus USA300 assessed as appearance of broken cell surface at 2 to 4 times MIC by SEM analysis; type: functional, organism-based
Staphylococcus aureus [17] = test: Antibiofilm activity against Methicillin-resistant Staphylococcus aureus USA300 assessed as inhibition of biofilm formation at 0.5 times MIC by crystal violet staining based assay; type: functional; design: scale not given: the % may be the effect or the level left
Staphylococcus aureus [18] = test: Antibacterial activity against Methicillin-resistant Staphylococcus aureus USA300 infected in mouse skin infection model assessed as reduction in number of bacteria at 10 mg/kg, sc administered every 12 hrs for 3 days; type: functional; settings: time 3 day
Staphylococcus aureus [19] = test: Antibacterial activity against methicillin-resistant Staphylococcus aureus ATCC 4330 assessed as inhibition of bacterial growth incubated for 24 hrs by broth dilution method; type: functional
Staphylococcus aureus [20] = test: Additive antibacterial activity against Methicillin-resistant Staphylococcus aureus USA300 assessed as doxycycline MIC incubated for 24 hrs by checkboard method(reference value: 0.125 microg/ml); type: functional
Cell membrane [21] = test: Induction of inner membrane permeabilization in Staphylococcus aureus USA300 assessed as increase in fluorescence intensity incubated for 90 mins by SYTOX staining based analysis; type: cell membranes
Cell membrane [22] = test: Induction of cell membrane damage in Staphylococcus aureus USA300 assessed as increase in red fluorescence intensity at 2 times MIC by confocal laser scanning microscopic analysis; type: cell membranes
Staphylococcus aureus [23] = test: Inhibition of staphyloxanthin biosynthesis in Methicillin-resistant Staphylococcus aureus ATCC 3392 assessed as reduction in 4,4-Diapophytoene formation at 0.125 to 0.625 times MIC by nanodrop spectrophotometer analysis; type: functional, organism-based
[24] = Toxicity in mouse assessed as change in body weight at 10 mg/kg, sc administered every 12 hrs for 4 days; type: organism-based; settings: in vivo, 96 h, time 4 day
Staphylococcus aureus [25] = test: Antibiofilm activity against Methicillin-resistant Staphylococcus aureus USA300 assessed as biofilm eradication at 16 times MIC by crystal violet staining based assay; type: functional
Staphylococcus aureus [26] = test: Antibacterial activity against Methicillin-resistant Staphylococcus aureus USA300 assessed as decrease in number of colonies at 1 to 4 times MIC incubated upto 8 hrs by time-kill kinetics assay; type: functional, organism-based
Pseudomonas aeruginosa = test: Antibacterial activity against Pseudomonas aeruginosa […] assessed as inhibition of bacterial growth incubated for 24 hrs by broth dilution method; type: functional
Staphylococcus aureus [27] = test: Synergistic antibacterial activity against Methicillin-resistant Staphylococcus aureus USA300 assessed as fractional inhibitory concentration index in presence of oxacillin by checkboard method; type: functional
Staphylococcus aureus [28] = test: Selectivity index, ratio of MBC for bactericidal against methicillin-resistant Staphylococcus aureus ATCC 3392 to MIC for antibacterial activity against methicillin-resistant Staphylococcus aureus ATCC 3392; type: functional
Staphylococcus aureus [29] = test: Antibacterial activity against Methicillin-resistant Staphylococcus aureus USA300 assessed as decrease in number of colonies at 0.5 times MIC incubated for 2 to 5 hrs by time-kill kinetics assay; type: functional, organism-based; settings: time 2-5 hrs
Staphylococcus aureus [30] = test: Synergistic antibacterial activity against Methicillin-resistant Staphylococcus aureus USA300 assessed as oxacillin MIC incubated for 24 hrs by checkboard method (reference value: 2 microg/ml); type: functional
Cell membrane [31] = test: Induction of inner membrane permeabilization in Staphylococcus aureus USA300 assessed as increase in fluorescence intensity at 1 times MIC incubated for 90 mins by SYTOX staining based analysis
Staphylococcus aureus [32] = test: Inhibition of staphyloxanthin biosynthesis in Methicillin-resistant Staphylococcus aureus ATCC 3392 assessed as reduction in 4,4-Diaponeurosporene formation at 0.125 to 0.625 times MIC by nanodrop spectrophotometer analysis; type: functional, organism-based
Staphylococcus aureus [33] = test: Induction of resistance development in methicillin resistant Staphylococcus aureus USA300 assessed as fold increase in MIC measured upto 65 days; type: functional; settings: time <= 65.0 day
Staphylococcus aureus [34] = test: Antibiofilm activity against Methicillin-resistant Staphylococcus aureus USA300 assessed as inhibition of biofilm formation at 0.25 times MIC by crystal violet staining based assay; type: functional; design: scale not given: the % may be the effect or the level left
Staphylococcus aureus [35] = test: Synergistic antibacterial activity against Methicillin-resistant Staphylococcus aureus USA300 assessed as fractional inhibitory concentration index in presence of amoxicillin by checkboard method; type: functional
Staphylococcus aureus [36] = test: Antibacterial activity against Methicillin-resistant Staphylococcus aureus USA300 assessed as inhibition of bacterial growth incubated for 24 hrs by broth dilution method; type: functional
Escherichia coli = test: Antibacterial activity against Escherichia coli ATCC 11775 assessed as inhibition of bacterial growth incubated for 24 hrs by broth dilution method; type: functional
[37] = Cytotoxicity against human L02 cells assessed as survival rate incubated for 24 hrs by MTT assay; type: toxicity, cell-based; design: concentration or dose not given beside the values; settings: read-out: Survival
Staphylococcus aureus [38] = test: Inhibition of staphyloxanthin biosynthesis in Methicillin-resistant Staphylococcus aureus ATCC 3392 assessed as reduction in Staphyloxanthin formation at 0.125 to 0.625 times MIC by nanodrop spectrophotometer analysis; type: functional, organism-based
Klebsiella pneumoniae = test: Antibacterial activity against Klebsiella pneumoniae […] assessed as inhibition of bacterial growth incubated for 24 hrs by broth dilution method; type: functional
Staphylococcus aureus [39] = test: Bactericidal against methicillin-resistant Staphylococcus aureus ATCC 4330 assessed as inhibition of bacterial growth incubated for 24 hrs by broth dilution method; type: functional
Staphylococcus aureus [40] = test: Induction of morphological changes in Staphylococcus aureus USA300 assessed as appearance of wrinkled cell surface at 2 to 4 times MIC by SEM analysis; type: functional, organism-based

CCCCCCC(=O)c1c(O)cc(O)c(C(=O)CCCCCC)c1O
Activity (Staphylococcus aureus [1]): ~50% | inhibition (Staphylococcus aureus [2]): Active | Activity (Cell membrane [3]): Active | Activity (Cell membrane [4]): 70% | viability at 24 h [5]: 76% | fractional inhibitory concentration index (FICI) (Staphylococcus aureus [6]): 0.75 | Activity (Cell membrane [7]): Active | MIC (Staphylococcus aureus [8]): 1 µg/mL (≈ 2.85 µM) | MBC (Staphylococcus aureus [9]): 1 µg/mL (≈ 2.85 µM) | Activity (Cell membrane [10]): inactive | Activity (Staphylococcus aureus [11]): Dose-Dependent Effect | Activity (Cell membrane [12]): Active | Activity (Staphylococcus aureus [13]): Active | MIC (Staphylococcus aureus [14]): 0.125 µg/mL | Activity (Staphylococcus aureus [15]): 2.5 log10CFU/g | Activity (Staphylococcus aureus [16]): Active | Activity (Staphylococcus aureus [17]): 95% | Activity (Staphylococcus aureus [18]): 1.5 log10CFU/g | MIC (Staphylococcus aureus [19]): 0.5 µg/mL (≈ 1.43 µM) | MIC (Staphylococcus aureus [20]): 0.25 µg/mL | Activity (Cell membrane [21]): Dose-Dependent Effect | Activity (Cell membrane [22]): Active | inhibition (Staphylococcus aureus [23]): inactive | Activity [24]: Non-Toxic | Activity (Staphylococcus aureus [25]): 37% | Activity (Staphylococcus aureus [26]): Active | MIC (Pseudomonas aeruginosa): > 64 µg/mL | fractional inhibitory concentration index (FICI) (Staphylococcus aureus [27]): 0.375 | Selectivity Index (Staphylococcus aureus [28]): 1 | Activity (Staphylococcus aureus [29]): Active | MIC (Staphylococcus aureus [30]): 0.125 µg/mL | Activity (Cell membrane [31]): Active | inhibition (Staphylococcus aureus [32]): Active | fold change (FC) (Staphylococcus aureus [33]): 256 | Activity (Staphylococcus aureus [34]): 58% | fractional inhibitory concentration index (FICI) (Staphylococcus aureus [35]): 0.312 | MIC (Staphylococcus aureus [36]): 0.5 µg/mL (≈ 1.43 µM) | MIC (Escherichia coli): > 64 µg/mL | viability at 24 h [37]: 75% | inhibition (Staphylococcus aureus [38]): Active | MIC (Klebsiella pneumoniae): > 64 µg/mL | MBC (Staphylococcus aureus [39]): 1 µg/mL (≈ 2.85 µM) | Activity (Staphylococcus aureus [40]): Active
